Assay results reported in US20250255867A1 (Kadmon Corporation, LLC, priority 2022, published 2025).

System: patients with cGVHD
Assay: Example 1: Global Severity Rating and participant self-reported symptom activity
Format: in vivo, human
Description: Maximal Improvement from Baseline in Global Severity Rating (GSR) by Clinician-reported cGVHD Assessment. The GSR assessment was performed by asking the participants to rate their disease severity of cGVHD symptoms on a 0 to 10-point numeric rating scale, where score 0 indicated ‘not at all severe cGVHD symptoms’ and score 10 indicated ‘most severe cGVHD symptoms possible’. The response was defined using the scores from 9 organs: skin, eyes, mouth, esophagus, upper gastrointestinal (GI) track, lower GI tract, liver, lungs, and joints and fascia plus GSR. End of treatment (EOT) visit was performed within 3 days after the participant's last dose of study drug. Baseline value was defined as valid and last non-missing value obtained within 28 days prior to participant receiving first study medication. […] Analysis was performed on mITT population.
Number of Participants With Maximal Improvement From Baseline in Symptom Activity by cGVHD Activity Assessment Participant Self-Report. cGVHD symptom severity was self-reported by participants. Participants were asked to rate their disease symptom severity over the last week on the following questions: skin itching at its worst, moth dryness at its worst, mouth pain at its worst, mouth sensitivity at its worst, main compliant on eyes, symptom severity on eyes. The severity rating was done on a 0 to 10-point numeric rating scare, where score 0 indicated ‘not at all severe cGVHD symptoms’ and score 10 indicated ‘most severe cGVHD symptoms possible’. EOT visit was performed within 3 days after the participant's last dose of study drug. Baseline value was defined as valid and last non-missing value obtained within 28 days prior to participant receiving first study medication. […] Analysis was performed on mITT population.

CC(C)NC(=O)COc1cccc(-c2nc(Nc3ccc4[nH]ncc4c3)c3ccccc3n2)c1 [Belumosudil, 2-{3-[4-(1H-indazol-5-ylamino)-2-quinazolinyl]phenoxy}-N-(propan-2-yl) acetamide]
3 participants: Maximal improvement in self-reported symptom activity of −7 (Cohort 1 200 mg QD) | Maximal improvement in self-reported symptom activity of −2 (Cohort 2 200 mg BID)
1 (6%) participants: Maximal improvement from baseline in GSR of −1 (Cohort 1 200 mg QD) | Maximal improvement from baseline in GSR of 1 (Cohort 2 200 mg BID) | Maximal improvement from baseline in GSR of 3 (Cohort 2 200 mg BID)
1 (5%) participants: Maximal improvement from baseline in GSR of 1 (Cohort 3 400 mg QD) | Maximal improvement from baseline in GSR of −3 (Cohort 3 400 mg QD)
0 participants: Maximal improvement in self-reported symptom activity of 1 (Cohort 1 200 mg QD) | Maximal improvement in self-reported symptom activity of 2 (Cohort 1 200 mg QD) | Maximal improvement in self-reported symptom activity of −6 (Cohort 1 200 mg QD) | Maximal improvement in self-reported symptom activity of −8 (Cohort 1 200 mg QD) | Maximal improvement in self-reported symptom activity of 1 (Cohort 2 200 mg BID) | Maximal improvement in self-reported symptom activity of 4 (Cohort 2 200 mg BID) | Maximal improvement in self-reported symptom activity of −5 (Cohort 2 200 mg BID) | Maximal improvement in self-reported symptom activity of −8 (Cohort 2 200 mg BID) | Maximal improvement in self-reported symptom activity of 0 (Cohort 3 400 mg QD) | Maximal improvement in self-reported symptom activity of 4 (Cohort 3 400 mg QD) | Maximal improvement in self-reported symptom activity of −7 (Cohort 3 400 mg QD)
2 participants: Maximal improvement in self-reported symptom activity of −1 (Cohort 1 200 mg QD) | Maximal improvement in self-reported symptom activity of −2 (Cohort 1 200 mg QD) | Maximal improvement in self-reported symptom activity of −3 (Cohort 1 200 mg QD) | Maximal improvement in self-reported symptom activity of −4 (Cohort 1 200 mg QD) | Maximal improvement in self-reported symptom activity of −5 (Cohort 1 200 mg QD) | Maximal improvement in self-reported symptom activity of −1 (Cohort 2 200 mg BID) | Maximal improvement in self-reported symptom activity of −3 (Cohort 2 200 mg BID) | Maximal improvement in self-reported symptom activity of −4 (Cohort 2 200 mg BID) | Maximal improvement in self-reported symptom activity of −7 (Cohort 2 200 mg BID) | Maximal improvement in self-reported symptom activity of 2 (Cohort 3 400 mg QD) | Maximal improvement in self-reported symptom activity of −1 (Cohort 3 400 mg QD) | Maximal improvement in self-reported symptom activity of −2 (Cohort 3 400 mg QD) | Maximal improvement in self-reported symptom activity of −3 (Cohort 3 400 mg QD) | Maximal improvement in self-reported symptom activity of −5 (Cohort 3 400 mg QD)
2 (12%) participants: Maximal improvement from baseline in GSR of −2 (Cohort 1 200 mg QD) | Maximal improvement from baseline in GSR of −4 (Cohort 1 200 mg QD) | Maximal improvement from baseline in GSR of −5 (Cohort 1 200 mg QD)
2 (13%) participants: Maximal improvement from baseline in GSR of −1 (Cohort 2 200 mg BID) | Maximal improvement from baseline in GSR of −5 (Cohort 2 200 mg BID) | Maximal improvement from baseline in GSR of −6 (Cohort 2 200 mg BID)
1 participants: Maximal improvement in self-reported symptom activity of 0 (Cohort 1 200 mg QD) | Maximal improvement in self-reported symptom activity of 4 (Cohort 1 200 mg QD) | Maximal improvement in self-reported symptom activity of 0 (Cohort 2 200 mg BID) | Maximal improvement in self-reported symptom activity of 2 (Cohort 2 200 mg BID) | Maximal improvement in self-reported symptom activity of −6 (Cohort 2 200 mg BID) | Maximal improvement in self-reported symptom activity of 1 (Cohort 3 400 mg QD) | Maximal improvement in self-reported symptom activity of −4 (Cohort 3 400 mg QD) | Maximal improvement in self-reported symptom activity of −8 (Cohort 3 400 mg QD)
4 (25%) participants: Maximal improvement from baseline in GSR of 0 (Cohort 2 200 mg BID) | Maximal improvement from baseline in GSR of −2 (Cohort 2 200 mg BID)
0 (0%) participants: Maximal improvement from baseline in GSR of 1 (Cohort 1 200 mg QD) | Maximal improvement from baseline in GSR of 3 (Cohort 1 200 mg QD) | Maximal improvement from baseline in GSR of −6 (Cohort 1 200 mg QD) | Maximal improvement from baseline in GSR of −7 (Cohort 1 200 mg QD) | Maximal improvement from baseline in GSR of −3 (Cohort 2 200 mg BID) | Maximal improvement from baseline in GSR of −4 (Cohort 2 200 mg BID) | Maximal improvement from baseline in GSR of −7 (Cohort 2 200 mg BID) | Maximal improvement from baseline in GSR of 3 (Cohort 3 400 mg QD) | Maximal improvement from baseline in GSR of −5 (Cohort 3 400 mg QD) | Maximal improvement from baseline in GSR of −6 (Cohort 3 400 mg QD)
3 (14%) participants: Maximal improvement from baseline in GSR of 0 (Cohort 3 400 mg QD) | Maximal improvement from baseline in GSR of −4 (Cohort 3 400 mg QD)
2 (10%) participants: Maximal improvement from baseline in GSR of −7 (Cohort 3 400 mg QD)
4 (19%) participants: Maximal improvement from baseline in GSR of −1 (Cohort 3 400 mg QD) | Maximal improvement from baseline in GSR of −2 (Cohort 3 400 mg QD)
4 participants: Maximal improvement in self-reported symptom activity of −6 (Cohort 3 400 mg QD)
5 (29%) participants: Maximal improvement from baseline in GSR of 0 (Cohort 1 200 mg QD)
